Tests used:
[1] = system: T1, P. expansium laccase; test: Lineweaver-Burk; format: biochemical, Penicillium expansum; conditions: free enzyme; 0.2-0.8 mM substrate; 0.1 M sodium acetate pH 5.0, 40 °C
T1 construct: gene EC 1.10.3.2; native enzyme purified from culture filtrate (ABTS-supplemented medium; ammonium sulfate, DEAE-cellulose, Sephadex G-200); single SDS-PAGE band ~60 kDa; free (soluble) enzyme
Description: Lineweaver-Burk on P. expansium laccase

[2] = system: T1, P. expansium laccase; test: spectrophotometric oxidation assay at […] nm, Lineweaver-Burk; format: biochemical, Penicillium expansum; conditions: free enzyme; 0.2-0.8 mM substrate; 0.1 M sodium acetate pH 5.0, 40 °C

SMILES | Km [1] [µM] | Km [2] [µM]
Oc1ccccc1O [catechol] | 1310 | 
CCn1c(=NN=c2sc3cc(S(=O)(=O)O)ccc3n2CC)sc2cc(S(=O)(=O)O)ccc21 [ABTS] |  | 4150
